Experimental data: ChEMBL document CHEMBL1201862, “PubChem BioAssay data set” (2004)
The source made the active and inactive calls. No rule for the calls is given here.

Key:
[1] = target: T1, High affinity choline transporter 1 (Homo sapiens, UniProt Q9GZV3); assay: human choline transporter blockers, potency – cell-based, 5-point CRC, membrane potential dye, dose response (AID 504840); type: functional
T1 sequence (Q9GZV3 whole entry): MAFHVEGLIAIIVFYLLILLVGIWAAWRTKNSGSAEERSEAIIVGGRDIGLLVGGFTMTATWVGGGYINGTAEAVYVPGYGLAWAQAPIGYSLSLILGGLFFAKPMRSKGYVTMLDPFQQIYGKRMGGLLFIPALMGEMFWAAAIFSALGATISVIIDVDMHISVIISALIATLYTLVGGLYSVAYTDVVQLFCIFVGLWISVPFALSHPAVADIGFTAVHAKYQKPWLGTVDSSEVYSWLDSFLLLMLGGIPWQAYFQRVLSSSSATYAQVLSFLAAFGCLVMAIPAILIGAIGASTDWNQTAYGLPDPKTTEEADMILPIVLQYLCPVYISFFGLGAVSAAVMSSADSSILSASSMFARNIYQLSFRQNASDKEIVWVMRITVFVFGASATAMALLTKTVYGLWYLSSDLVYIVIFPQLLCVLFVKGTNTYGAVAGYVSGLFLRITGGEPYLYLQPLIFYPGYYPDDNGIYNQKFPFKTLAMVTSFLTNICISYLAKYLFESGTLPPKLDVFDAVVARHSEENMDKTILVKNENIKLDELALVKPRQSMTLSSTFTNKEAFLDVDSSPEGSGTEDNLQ

[2] = target: T1, High affinity choline transporter 1; assay: human choline transporter blockers, potency – cell-based, 10-point CRC, membrane potential dye, dose response (AID 588401); type: functional;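 also: membrane potential dye fluorescence of choline-evoked depolarization via CHT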

CCc1cccc(C)c1NC(=O)c1ccc(CN2CCc3ccccc3C2)cc1
IC50 [1]: 3.88 µM (active)
IC50 [2]: 7.94 µM (active)
